Measurements published in publication PMC4971421, “Redox-Dependent Modulation of T-Type Ca^2+ Channels in Sensory Neurons Contributes to Acute Anti-Nociceptive Effect of Substance P” (Antioxidants & Redox Signaling, 2016).

Legend:
[1] = test system: rat hind paw; test: BK-induced nocifensive behavior, pre-injection protocol; format: in vivo; settings: for BK-induced nociception: 5 min before BK 10 nmol/site
Description: Sprague–Dawley rats (body weight, 170–180 g) were grouped randomly and allowed to acclimate for at least 30 min in a transparent observation chamber before the experiment. Animals received a 50-μl intraplantar injection of ST101 (0.001–10 nmol/site), BK (10 nmol/site), RTG (1–10 nmol/site), Z944 (0.05–5 nmol/site), SP (0.5–5 nmol/site), or saline, respectively, into the right hind paw. For evaluation of the acute “spontaneous” pain, animals were video-recorded for 30 min after the injection and protective (“nocifensive”) behavior was analyzed as time spent licking, biting, lifting, and flinching the injected paw. The analyses were performed by an observer who was unaware of treatment allocations. In the pre-injection experiments, the right hind paw of the animal received a pre-injection of 50 μl Z944 (0.05–0.5 nmol/site), RTG (1–10 nmol/site), SP (0.5 nmol/site), Z944 (0.05–0.5 nmol/site)+RTG (1 nmol/site), or saline; 5 min later, on the same paw, the animal received a further 50-μl injection of BK (10 nmol/site) together with the pre-injection drug mix. Nocifensive behavior was analyzed as described earlier.
The in vivo CaV3.2 knock-down was performed as described earlier ([3]) by using the same ODN sequences that were synthesized by SBS Genetech. AS ODNs had the following sequence: […]. The mismatch ODNs of the following sequence were used as a negative control: […]. The mismatch ODN was not complementary to any known nucleotide sequence. ODNs were reconstituted in saline before injection. ODNs (12.5 μg/rat in 10 μl of saline) or saline were injected intrathecally (i.t.) between the L5 and L6 dorsal spinous processes as described earlier ([3], [42]) under isoflurane anesthesia. The treatment was repeated twice daily for 4 days. The pain tests were performed on the next day after the last injection. After behavioral testing, animals were humanly sacrificed; lumbar DRGs were extracted and analyzed for the knock-down efficiency by comparing the Cacna1h mRNA levels in lumbar (L4 to L6) DRGs of the saline-injected, mismatch ODN-injected, and AS ODN-injected animals using RT-PCR. The same Cacna1h and Gapdh primers as in siRNA experiments were used for RT-PCR.

[2] = test system: rat hind paw; test: von Frey test; format: in vivo; settings: 50 μl; 0.5 nmol/site; filaments 2–15 g; 8 min after injection
Description: For measurement of sensitivity to gentle touch and mechanical hyperalgesia, two methods were used. (i) Cotton swab test was performed as previously described ([53]). Briefly, rats were allowed to acclimate in a cage with a wire mesh bottom for at least 30 min and then were manually probed with a “cotton swab” pulled from a Q-tip (to approximately three times the original size). A swab was applied in a sweeping motion underneath the rats’ paws, and the withdrawal responses were recorded. Five sweeps were applied in each test, with at least 10 s between each sweep; withdrawal score was calculated as a percentage of positive responses. (ii) The von Frey test was performed using a calibrated range of filaments with different bending forces (2, 4, 6, 8, 10, and 15 g; Stoelting Co.). A single filament was applied perpendicularly to the plantar surface of the hind paw for five times, with an interval of 5 s, and it was scored for withdrawal responses. Each force was probed five times, the number of withdrawals out of five trials was counted, and the percentage of withdrawal responses was calculated. Both types of assays were performed 8 min after the hind-paw drug injection.

[3] = test system: high-voltage-activated (HVA) Ca^2+ currents in DRG neurons; test: HVA Ca2+ current, whole-cell patch clamp, DRG neurons; format: cell-based, rat; settings: 1 μM
Description: DRG neurons from adult male Sprague–Dawley rats (170–180 g) were dissociated as previously described ([13], [29]) and cultured in DMEM supplemented with GlutaMax I, 10% fetal calf serum, penicillin (50 U/ml), and streptomycin (50 μg/ml) on glass coverslips that were coated with poly-D-lysine for 2–5 days in a humidified incubator (37°C, 5% CO2). No growth factors were added to the culture media. HEK 293 cells were cultured in the same DMEM media; cells were passaged every 2 days. Human NK1 receptor (GenBank accession No. AY462098) complementary DNA (cDNA) was from the Missouri Science and Technology cDNA Resource Center. WtCaV3.1 (GenBank accession No. AF027984), wtCaV3.2 (GenBank accession No. AF051946), CaV3.1Q172H, and CaV3.2H191Q were kindly provided by Dr E. Perez-Reyes (University of Virginia). HEK293 cells were transfected using Lipofectamine 2000 (Invitrogen) according to the manufacturer's instructions. […]
All recordings were made using Multiclamp 700B amplifier in combination with pCLAMP 10.4 software (Molecular Devices). […] T-type calcium currents (LVA) were measured by 50 ms square voltage pulses to −40 mV from a holding potential of −90 mV. HVA currents were measured by 200 ms square voltage pulses to 0 mV from a holding potential of −90 mV.

## CC(C)(C)NC(=O)CN1CCC(CNC(=O)c2cc(F)cc(Cl)c2)CC1 [Z944, N-[[1-[2-(tert-butylamino)-2-oxoethyl]piperidin-4-yl]methyl]-3-chloro-5-fluorobenzamide]
[1]; 0.5 nmol/site, BK 10 nmol/site
  nocifensive behavior produced by hind-paw BK injection in saline- and mismatch ODN-injected animals: still significantly attenuated
[1]; pre-injection 0.05 nmol/site
  BK-induced nociception: not at 0.05 nmol/site
[1]; pre-injection 0.5 nmol/site
  BK-induced nociception: significantly attenuated
[2]
  response to von Frey filament stimulation: significantly impaired their ability to respond to stimulation
[3]
  effect on HVA current: without a noticeable effect
